In patent publication US8354455B2, “Prodrugs containing novel bio-cleavable linkers” (Piramal Enterprises Limited and Apparao Satyam, priority 2004, dated 2013):
In brackets after ≈: the same amount, converted by molar mass.

Legend:
[1] = Water solubility (HPLC of supernatant); assay type: physicochemical
Procedure: Water solubility: Paclitaxel and its prodrug I-S22-PD2 (2 mg each) were suspended in 1 mL water or PBS-buffer (pH 7.4). The suspensions were sonicated for 15 min and centrifuged (13,000 g) for 10 min. The supernatant was analyzed using HPLC.
HPLC: Waters RP18 column ([…], X-Terra); DAD-HP Agilent (Model 1100); eluent: CH3CN:H2O (gradient 0-100% acetonitrile in 0-15 min). The UV-detector was set at […]. The concentrations were determined by measuring the relative area of paclitaxel or I-S22-PD2. […] (i.e., ˜0.2 mg/mL).

MES-induced seizures [2] = assay: Maximal Electroshock Test (MES), Test 1, mice i.p.; assay type: in vivo
rats = conditions: rat, in vivo, po, 50 mg/kg
MES-induced seizures [3] = assay: animal or person; assay type: in vivo, rats; conditions: Test 2, rats p.o., 50 mg/kg
convulsant metrazol = assay: Subcutaneous Metrazol Seizure Threshold Test (scMET), Test 1, mice i.p.; assay type: in vivo; conditions: mice, i.p.

Row | Compound | solubility at 15 min ([1]; aqueous buffer, thermodynamic from solid, 2 mg suspended in 1 mL water or PBS-buffer (pH 7.4), sonicated, centrifuged) [µg/mL] | solubility relative to paclitaxel ([1]; water or PBS-buffer (pH 7.4)) [times] | toxicity (in words) (mice; Test 1, mice i.p.) | Rotorod Toxicity 0.5 h (mice; mice, i.p., 0.5 h, symbol = dose with toxicity) | Rotorod Toxicity 4.0 h (mice; mice, i.p., 4.0 h, symbol = dose with toxicity) | activity in MES model (in words) (MES-induced seizures [2]; Test 1, mice i.p.) | MES (number of animal protected/number of animal tested) (MES-induced seizures [2]; mice, i.p., 0.5 h, 300 mg/kg (+)) | MES 0.5 h (MES-induced seizures [2]; mice, i.p., 0.5 h, symbol = dose with activity) | MES 4.0 h (MES-induced seizures [2]; mice, i.p., 4.0 h, symbol = dose with activity) | Toxicity (number of animals exhibiting toxicity/number of animals tested) (rats) | MES (number of animal protected/number of animal tested) (MES-induced seizures [3]; 0.50 h) | MES (number of animal protected/number of animal tested) (MES-induced seizures [3]; 1.00 h) | MES (number of animal protected/number of animal tested) (MES-induced seizures [3]; 2.00 h) | MES (number of animal protected/number of animal tested) (MES-induced seizures [3]; 4.00 h) | ScMET (number of animal protected/number of animal tested) (convulsant metrazol; 0.5 h, 300 mg/kg (+)) | ScMET 0.5 h (convulsant metrazol; 0.5 h, symbol = dose with activity) | ScMET 4.0 h (convulsant metrazol; 4.0 h, symbol = dose with activity)
1 | CC(=O)O[C@H]1C(=O)[C@@]2(C)C([C@H](OC(=O)c3ccccc3)[C@]3(O)C[C@H](OC(=O)[C@H](OC(=O)OCCSSCCOC(=O)CCC(=O)O)[C@@H](NC(=O)c4ccccc4)c4ccccc4)C(C)=C1C3(C)C)[C@]1(OC(C)=O)CO[C@@H]1C[C@@H]2O (some centres unmarked) [I-S22-PD2] | ~200 (≈ 176 µM) | 20 |  |  |  |  |  |  |  |  |  |  |  |  |  |  | 
2 | CCOC(=O)CC1(CNC(=O)OCCSSCC(=O)OC)CCCCC1 [I-A1-PD5] |  |  | no or mild toxicity | + (+ = activity or toxicity at 300 mg/kg) | — (— = no activity or no toxicity at 300 mg/kg) | active in MES | (1/1) | + (+ = activity or toxicity at 300 mg/kg) | — (— = no activity or no toxicity at 300 mg/kg) | 0/4 | 0/4 | 0/4 | 1/4 | 1/4 | (3/5) | + (+ = activity or toxicity at 300 mg/kg) | — (— = no activity or no toxicity at 300 mg/kg)
